Broadly, the IC50 is the point on the concentration scale where inhibition reaches its midpoint. Low values mean inhibition by little substance, high ones a need for much substance.

For the assay, the system named is GM1 production in Jurkat cells. In words: cells. The format is cell-based. To be noted: Homo sapiens, Jurkat, 72 h.
In turn, `CCOc1ccc(C)cc1-c1ccc2c(c1)CC(C)(C)C2NC(=O)O[C@@H]1CN2CCC1CC2` (stereo partly drawn) [Example 198, (S)-quinuclidin-3-yl (5-(2-ethoxy-5-methylphenyl)-2,2-dimethyl-2,3-dihydro-1H-inden-1-yl)carbamate] displayed a 50% inhibitory concentration (IC50) of 11.7 nM. In the case of `CCCOc1cccc(-c2ccc3c(c2)CC(C)(C)C3NC(=O)O[C@@H]2CN3CCC2CC3)c1` (stereo partly drawn) [Example 199, (S)-quinuclidin-3-yl (2,2-dimethyl-5-(3-propoxyphenyl)-2,3-dihydro-1H-inden-1-yl)carbamate], the concentration for half-maximal inhibition (IC50) amounted to 5.5 nM.

For `COc1ccc(C)cc1-c1ccc2c(c1)CC(C)(C)C2NC(=O)O[C@@H]1CN2CCC1CC2` (stereo partly drawn) [Example 200, (S)-quinuclidin-3-yl (5-(2-methoxy-5-methylphenyl)-2,2-dimethyl-2,3-dihydro-1H-inden-1-yl)carbamate], the IC50 was determined as 3.7 nM.

`CCCCOc1ccc(F)cc1-c1ccc2c(c1)CC(C)(C)C2NC(=O)O[C@@H]1CN2CCC1CC2` (stereo partly drawn) [Example 201, (S)-quinuclidin-3-yl (5-(2-butoxy-5-fluorophenyl)-2,2-dimethyl-2,3-dihydro-1H-inden-1-yl)carbamate] displayed a half-inhibitory concentration (IC50) of 38.2 nM. Compound `CCCCOc1ccc(-c2ccc3c(c2)CC(C)(C)C3NC(=O)O[C@@H]2CN3CCC2CC3)cc1Cl` (stereo partly drawn) [Example 202, (S)-quinuclidin-3-yl (5-(4-butoxy-3-chlorophenyl)-2,2-dimethyl-2,3-dihydro-1H-inden-1-yl)carbamate] returned a half-maximal inhibitory concentration (IC50) of 26.3 nM. The IC50 values of the last two compounds are within 1.5-fold of each other.

In turn, `CCCOc1ccc(-c2ccc3c(c2)CC(C)(C)C3NC(=O)O[C@@H]2CN3CCC2CC3)c(OCCC)c1` (stereo partly drawn) [Example 203, (S)-quinuclidin-3-yl (5-(2,4-dipropoxyphenyl)-2,2-dimethyl-2,3-dihydro-1H-inden-1-yl)carbamate] displayed an IC50 of 8.2 nM. The compound `CCOc1ccc(-c2ccc3c(c2)CC(C)(C)C3NC(=O)O[C@@H]2CN3CCC2CC3)cc1Cl` (stereo partly drawn) [Example 204, (S)-quinuclidin-3-yl (5-(3-chloro-4-ethoxyphenyl)-2,2-dimethyl-2,3-dihydro-1H-inden-1-yl)carbamate] showed an IC50 of 57.2 nM.

In turn, `CC(C)COc1cccc(-c2ccc3c(c2)CC(C)(C)C3NC(=O)O[C@@H]2CN3CCC2CC3)c1` (stereo partly drawn) [Example 205, (S)-quinuclidin-3-yl (5-(3-isobutoxyphenyl)-2,2-dimethyl-2,3-dihydro-1H-inden-1-yl)carbamate] displayed an IC50 of 7.6 nM.

In turn, `CCOc1ccc(-c2ccc3c(c2)CC(C)(C)C3NC(=O)O[C@@H]2CN3CCC2CC3)c(C)c1` (stereo partly drawn) [Example 206, (S)-quinuclidin-3-yl (5-(4-ethoxy-2-methylphenyl)-2,2-dimethyl-2,3-dihydro-1H-inden-1-yl)carbamate] showed an IC50 of 14 nM. This IC50 lies about 1.8-fold higher than the previous one. `CCCOc1ccc(-c2ccc3c(c2)CC(C)(C)C3NC(=O)O[C@@H]2CN3CCC2CC3)cc1Cl` (stereo partly drawn) [Example 207, (S)-quinuclidin-3-yl (5-(3-chloro-4-propoxyphenyl)-2,2-dimethyl-2,3-dihydro-1H-inden-1-yl)carbamate] had a 50% inhibitory concentration (IC50) of 58.6 nM.

For the compound `CC(C)Oc1ccc(F)cc1-c1ccc2c(c1)CC(C)(C)C2NC(=O)O[C@@H]1CN2CCC1CC2` (stereo partly drawn) [Example 208, (S)-quinuclidin-3-yl (5-(5-fluoro-2-isopropoxyphenyl)-2,2-dimethyl-2,3-dihydro-1H-inden-1-yl)carbamate], the concentration for half-maximal inhibition (IC50) was determined as 67.4 nM. The same measure for `CC(C)Oc1ccc(-c2ccc3c(c2)CC(C)(C)C3NC(=O)O[C@@H]2CN3CCC2CC3)cc1F` (stereo partly drawn) [Example 209, (S)-quinuclidin-3-yl (5-(3-fluoro-4-isopropoxyphenyl)-2,2-dimethyl-2,3-dihydro-1H-inden-1-yl)carbamate]: 32.1 nM; for `COc1ccc(Cl)cc1-c1ccc2c(c1)CC(C)(C)C2NC(=O)O[C@@H]1CN2CCC1CC2` (stereo partly drawn) [Example 210, (S)-quinuclidin-3-yl (5-(5-chloro-2-methoxyphenyl)-2,2-dimethyl-2,3-dihydro-1H-inden-1-yl)carbamate]: 7.5 nM. The result for `Cc1ccc(F)c(-c2ccc3c(c2)CC(C)(C)C3NC(=O)O[C@@H]2CN3CCC2CC3)c1` (stereo partly drawn) [Example 211, (S)-quinuclidin-3-yl (5-(2-fluoro-5-methylphenyl)-2,2-dimethyl-2,3-dihydro-1H-inden-1-yl)carbamate] reads 13.2 nM. `CCOc1ccc(Cl)cc1-c1ccc2c(c1)CC(C)(C)C2NC(=O)O[C@@H]1CN2CCC1CC2` (stereo partly drawn) [Example 212, (S)-quinuclidin-3-yl (5-(5-chloro-2-ethoxyphenyl)-2,2-dimethyl-2,3-dihydro-1H-inden-1-yl)carbamate] registered a 50% inhibitory concentration (IC50) of 19.1 nM. Take `CCCOc1ccc(F)cc1-c1ccc2c(c1)CC(C)(C)C2NC(=O)O[C@@H]1CN2CCC1CC2` (stereo partly drawn) [Example 213, (S)-quinuclidin-3-yl (5-(5-fluoro-2-propoxyphenyl)-2,2-dimethyl-2,3-dihydro-1H-inden-1-yl)carbamate]: the half-inhibitory concentration (IC50) came out at 39.8 nM. Compound `CCCOc1cccc(F)c1-c1ccc2c(c1)CC(C)(C)C2NC(=O)O[C@@H]1CN2CCC1CC2` (stereo partly drawn) [Example 214, (S)-quinuclidin-3-yl (5-(2-fluoro-6-propoxyphenyl)-2,2-dimethyl-2,3-dihydro-1H-inden-1-yl)carbamate] had a half-inhibitory concentration (IC50) of 64.2 nM. The same measure for `Cc1ccc(-c2ccc3c(c2)CC(C)(C)C3NC(=O)O[C@@H]2CN3CCC2CC3)cc1F` (stereo partly drawn) [Example 215, (S)-quinuclidin-3-yl (5-(3-fluoro-4-methylphenyl)-2,2-dimethyl-2,3-dihydro-1H-inden-1-yl)carbamate]: 14.9 nM. On to `CCCOc1ccc(-c2ccc3c(c2)CC(C)(C)C3NC(=O)O[C@@H]2CN3CCC2CC3)cc1F` (stereo partly drawn) [Example 216, (S)-quinuclidin-3-yl (5-(3-fluoro-4-propoxyphenyl)-2,2-dimethyl-2,3-dihydro-1H-inden-1-yl)carbamate], for which half-maximal inhibition (IC50) was put at 28.7 nM. This IC50 lies about 1.9-fold higher than the previous one. Regarding `CC(C)Oc1ccc(Cl)cc1-c1ccc2c(c1)CC(C)(C)C2NC(=O)O[C@@H]1CN2CCC1CC2` (stereo partly drawn) [Example 217, (S)-quinuclidin-3-yl (5-(5-chloro-2-isopropoxyphenyl)-2,2-dimethyl-2,3-dihydro-1H-inden-1-yl)carbamate], inhibition was half-maximal at 72.1 nM (IC50). In the case of `CCCCOc1cccc(-c2ccc3c(c2)CC(C)(C)C3NC(=O)O[C@@H]2CN3CCC2CC3)c1` (stereo partly drawn) [Example 218, (S)-quinuclidin-3-yl (5-(3-butoxyphenyl)-2,2-dimethyl-2,3-dihydro-1H-inden-1-yl)carbamate], the IC50 was 6.7 nM. For `Cc1cc(F)cc(-c2ccc3c(c2)CC(C)(C)C3NC(=O)O[C@@H]2CN3CCC2CC3)c1` (stereo partly drawn) [Example 219, (S)-quinuclidin-3-yl (5-(3-fluoro-5-methylphenyl)-2,2-dimethyl-2,3-dihydro-1H-inden-1-yl)carbamate], the IC50 came out at 30.4 nM. `Cc1ccc(F)cc1-c1ccc2c(c1)CC(C)(C)C2NC(=O)O[C@@H]1CN2CCC1CC2` (stereo partly drawn) [Example 220, (S)-quinuclidin-3-yl (5-(5-fluoro-2-methylphenyl)-2,2-dimethyl-2,3-dihydro-1H-inden-1-yl)carbamate] had a half-maximal inhibitory concentration (IC50) of 17.6 nM. In the case of `CC1(C)Cc2cc(-c3cc(C(F)(F)F)ccc3Cl)ccc2C1NC(=O)O[C@@H]1CN2CCC1CC2` (stereo partly drawn) [Example 221, (S)-quinuclidin-3-yl (5-(2-chloro-5-(trifluoromethyl)phenyl)-2,2-dimethyl-2,3-dihydro-1H-inden-1-yl)carbamate], the IC50 stood at 16.9 nM. The result for `COc1cc(F)cc(-c2ccc3c(c2)CC(C)(C)C3NC(=O)O[C@@H]2CN3CCC2CC3)c1` (stereo partly drawn) [Example 222, (S)-quinuclidin-3-yl (5-(3-fluoro-5-methoxyphenyl)-2,2-dimethyl-2,3-dihydro-1H-inden-1-yl)carbamate] reads 25.6 nM; that for `Cc1ccc(Cl)c(-c2ccc3c(c2)CC(C)(C)C3NC(=O)O[C@@H]2CN3CCC2CC3)c1` (stereo partly drawn) [Example 223, (S)-quinuclidin-3-yl (5-(2-chloro-5-methylphenyl)-2,2-dimethyl-2,3-dihydro-1H-inden-1-yl)carbamate], 5.2 nM; that for `COc1cc(-c2ccc3c(c2)CC(C)(C)C3NC(=O)O[C@@H]2CN3CCC2CC3)cc(C(F)(F)F)c1` (stereo partly drawn) [Example 224, (S)-quinuclidin-3-yl (5-(3-methoxy-5-(trifluoromethyl)phenyl)-2,2-dimethyl-2,3-dihydro-1H-inden-1-yl)carbamate], 18.8 nM. The same measure for `CC1(C)Cc2cc(-c3ccc(F)cc3Cl)ccc2C1NC(=O)O[C@@H]1CN2CCC1CC2` (stereo partly drawn) [Example 225, (S)-quinuclidin-3-yl (5-(2-chloro-4-fluorophenyl)-2,2-dimethyl-2,3-dihydro-1H-inden-1-yl)carbamate]: 21.3 nM; for `COc1cc(-c2ccc3c(c2)CC(C)(C)C3NC(=O)O[C@@H]2CN3CCC2CC3)ccc1F` (stereo partly drawn) [Example 226, (S)-quinuclidin-3-yl (5-(4-fluoro-3-methoxyphenyl)-2,2-dimethyl-2,3-dihydro-1H-inden-1-yl)carbamate]: 57 nM; for `Cc1ccc(-c2ccc3c(c2)CC(C)(C)C3NC(=O)O[C@@H]2CN3CCC2CC3)cc1C` (stereo partly drawn) [Example 227, (S)-quinuclidin-3-yl (5-(3,4-dimethylphenyl)-2,2-dimethyl-2,3-dihydro-1H-inden-1-yl)carbamate]: 10.2 nM. Take `Cc1cc(F)ccc1-c1ccc2c(c1)CC(C)(C)C2NC(=O)O[C@@H]1CN2CCC1CC2` (stereo partly drawn) [Example 228, (S)-quinuclidin-3-yl (5-(4-fluoro-2-methylphenyl)-2,2-dimethyl-2,3-dihydro-1H-inden-1-yl)carbamate]: half-maximal inhibition (IC50) was put at 48.6 nM.

The compound `CC1(C)Cc2cc(-c3ccc(C(F)(F)F)cc3F)ccc2C1NC(=O)O[C@@H]1CN2CCC1CC2` (stereo partly drawn) [Example 229, (S)-quinuclidin-3-yl (5-(2-fluoro-4-(trifluoromethyl)phenyl)-2,2-dimethyl-2,3-dihydro-1H-inden-1-yl)carbamate] gave an IC50 of 56.2 nM. The compound `COc1ccc(F)c(-c2ccc3c(c2)CC(C)(C)C3NC(=O)O[C@@H]2CN3CCC2CC3)c1` (stereo partly drawn) [Example 230, (S)-quinuclidin-3-yl (5-(2-fluoro-5-methoxyphenyl)-2,2-dimethyl-2,3-dihydro-1H-inden-1-yl)carbamate] gave an IC50 of 30.8 nM. `COc1cccc(-c2ccc3c(c2)CC(C)(C)C3NC(=O)O[C@@H]2CN3CCC2CC3)c1F` (stereo partly drawn) [Example 231, (S)-quinuclidin-3-yl (5-(2-fluoro-3-methoxyphenyl)-2,2-dimethyl-2,3-dihydro-1H-inden-1-yl)carbamate]: the IC50 was found to be 24.3 nM.

For the origin of these results see US12522602B2, “Derivatives having 2,3-dihydro-1H-indene or 2,3-dihydrobenzofuran moiety or pharmaceutically acceptable salt thereof and pharmaceutical compositions comprising the same” (YUHAN CORPORATION, priority 2019, dated 2026).
